Measurements published in patent publication US7622475B2, “EP2 agonists” (Pfizer Inc, priority 2006, dated 2009).

Legend:
[1] = system: ocular hypertensive non-human primates; assay: IOP change after topical application in ocular hypertensive non-human primates; format: in vivo; details: for ΔΔEmax (mm Hg): dosed hypertensive eye vs vehicle; for change in vivo at 0.1 %: Primates, read-out: ΔΔEmax (%)
Method: Tables 2 and 3 describe the intraocular pressure (IOP) changes that were seen following topical application of EP2 agonists in ocular hypertensive non-human primates. Typically, compounds in suitable formulations were dosed topically and IOP was measured using tonometry. Changes in IOP between vehicle treatment followed by treatment with EP2 compounds were assessed over time in the dosed hypertensive eye. ΔΔ Emax reflects the difference in IOP from EP2 compound-treated eye over that seen for vehicle-treated eye at the timepoint wherein maximum IOP reduction for compound was seen. The percent ΔΔ Emax was the percentage change in IOP reduction conferred by compound over that for vehicle (set at 100%). Tmax represents the time point at which maximum IOP reduction of compound was observed. […] NS represents not significant. Table 2 compares acids of EP2 compound while Table 3 compares IOP response seen with esters of certain acids. Esters provide better corneal penetration and improved drug exposure in the anterior chamber compared to acids and are therefore dosed at ⅕th the dose for acids […].

[2] = molecular target: EP2 (Homo sapiens, UniProt P43116); assay: EP2 cAMP EC50 (Table 1); format: cell-based
[3] = molecular target: T1, prostaglandin E2 type 2 (EP2) receptors (Homo sapiens, UniProt P43116); assay: Assay for binding to prostaglandin E2 receptors (3H-prostaglandin E2 displacement, membranes of transfected cells); details: displacement of 3H-prostaglandin E2
T1 construct: expressed in transfected cells
Method: All operations are performed at 4° C. […] These are lysed by sonification with a Branson Sonifier (Model #250, Branson Ultrasonics Corporation, Danbury, Conn.) in 2 fifteen second bursts. Unlysed cells and debris are removed by centrifugation at 100×g for 10 min. Membranes are then harvested by centrifugation at 45,000×g for 30 minutes. Pelleted membranes are resuspended to 3-10 mg protein per ml, protein concentration being determined according to the method of Bradford [Bradford, M., Anal. Biochem., 72, 248 (1976)]. Resuspended membranes are then stored frozen at −80° C. until use.
Frozen membranes as prepared are thawed and diluted to 1 mg protein per ml in Buffer A. One volume of membrane preparation is combined with 0.05 volume test compound or buffer and one volume of 3 nM 3H-prostaglandin E2 (#TRK 431, Amersham, Arlington Heights, Ill.) in Buffer A. The mixture (205 μL total volume) is incubated for 1 hour at 25° C. The membranes are then recovered by filtration through type GF/C glass fiber filters (#1 205401, Wallac, Gaithersburg, Md.) using a Tomtec harvester (Model Mach II/96, Tomtec, Orange, Conn.). The membranes with bound 3H-prostaglandin E2 are trapped by the filter, the buffer and unbound 3H-prostaglandin E2 pass through the filter into waste. Each sample is then washed 3 times with 3 ml of [50 mM Tris-HCl (pH 7.4), 10 mM MgCl2, 1 mM EDTA]. The filters are then dried by heating in a microwave oven. To determine the amount of 3H-prostaglandin bound to the membranes, the dried filters are placed into plastic bags with scintillation fluid and counted in a LKB 1205 Betaplate reader (Wallac, Gaithersburg, Md.). IC50s are determined from the concentration of test compound required to displace 50% of the specifically bound 3H-prostaglandin E2.

[4] = acid EP2 agonists, Conc 0.1 %, topical
[5] = acid EP2 agonists, Conc 0.1 %, topical, vs vehicle (set at 100%)
[6] = acid EP2 agonists, Conc 0.1 %, time point of maximum IOP reduction
[7] = topical, acid EP2 agonists, Conc 0.1 %, topical, vs vehicle (set at 100%)
[8] = isopropylesters, OHT primates, time point of maximum IOP reduction

T1 sequence (P43116 whole entry): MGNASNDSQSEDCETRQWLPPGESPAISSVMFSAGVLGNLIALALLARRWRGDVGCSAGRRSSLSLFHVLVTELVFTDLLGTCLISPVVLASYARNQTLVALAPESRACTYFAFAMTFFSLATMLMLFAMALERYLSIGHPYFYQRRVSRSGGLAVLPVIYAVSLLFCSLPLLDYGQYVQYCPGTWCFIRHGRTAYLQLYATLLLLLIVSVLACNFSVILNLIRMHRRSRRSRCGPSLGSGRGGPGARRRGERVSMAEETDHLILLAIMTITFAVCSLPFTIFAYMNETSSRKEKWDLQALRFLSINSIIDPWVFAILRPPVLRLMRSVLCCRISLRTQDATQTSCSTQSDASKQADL
Chain of EP2 (P43116 whole entry): as above

Row | EC50 [2] [nM] | IC50 [3] [nM] | Compound | ΔΔEmax (mm Hg) [1, 4] | further results
1 | 12 | < 10 | CC(C)OC(=O)COc1cccc(CN(Cc2ccc(-n3cccn3)cc2)S(=O)(=O)c2ccccn2)c1 [Example 18] |  | 
2 | 5.4 | 22 | CC(C)OC(=O)COc1cccc(CN(Cc2ccc(-c3ncccn3)cc2)S(=O)(=O)c2cccnc2)c1 [Example 23] |  | 
3 | 4.1 | 7.6 | CC(C)OC(=O)COc1cccc(CN(Cc2ccc(-c3ccccn3)cc2)S(=O)(=O)c2cccnc2)c1 [Example 19] |  | 
4 | 54 | 6.64 | CC(C)OC(=O)c1csc(CCCN(CCCc2cccc(Cl)c2)S(C)(=O)=O)n1 [Example 24] |  | 
5 | 51.5 | < 10 | CC(C)OC(=O)CCc1cccc(CN(Cc2ccc(-n3cccn3)cc2)S(=O)(=O)c2cccnc2)c1 [Example 20] |  | 
6 | 3.1 | < 10 | CC(C)OC(=O)CCc1cccc(CN(Cc2ccc(-c3ncccn3)cc2)S(=O)(=O)c2ccccc2)c1 [Example 14] |  | 
7 | 4.9 | < 10 | CC(C)OC(=O)CCc1cccc(CN(Cc2ccc(-c3ncccn3)cc2)S(=O)(=O)c2ccccn2)c1 [Example 15] |  | 
8 | 5.35 | < 12.4 | CC(C)OC(=O)CCc1cccc(CN(Cc2ccc(-c3cccnc3)cc2)S(=O)(=O)c2ccccc2)c1 [Example 8] |  | 
9 | 2.2 | 2.2 | CC(C)OC(=O)Cc1cccc(CN(Cc2ccc(-c3nccs3)cc2)S(=O)(=O)c2cccnc2)c1 [Example 21] |  | 

The next lines start with the compound.

Row | Compound | EC50 [2] [nM] | IC50 [3] [nM] | ΔΔEmax (mm Hg) [1, 4] | further results
10 | O=C(O)COc1cccc(CN(Cc2ccc(-n3cccn3)cc2)S(=O)(=O)c2cccnc2)c1 [drawing 52] |  |  | −7.0 mm Hg | ΔΔEmax (%) [1, 5]: −21%; Tmax [1, 6]: 4 h
11 | O=C(O)CCc1cccc(CN(Cc2ccc(-c3cncnc3)cc2)S(=O)(=O)c2ccccn2)c1 |  |  | ns | ΔΔEmax (%) [1, 5]: ns
12 | O=C(O)CCc1cccc(CN(Cc2ccc(-c3cccnc3)cc2)S(=O)(=O)c2cccnc2)c1 |  |  | ns | ΔΔEmax (%) [1, 5]: ns
13 | O=C(O)CCCCCCC1C(=O)CC[C@@H]1CCc1cccc(C(F)(F)F)c1 (stereo partly drawn) |  |  | −3.7 mm Hg | change in vivo at 0.1 % [1, 7]: -9%; Tmax [1, 6]: 6 h
14 | CC(C)OC(=O)c1csc(CCCN(CCOc2cc(Cl)cc(Cl)c2)S(C)(=O)=O)n1 [Example 7] | 18 | 5.3 |  | 
15 | O=C(O)COc1cccc(CN(Cc2ccc(-n3cccn3)cc2)S(=O)(=O)c2cccnc2)c1 [drawing 60] |  |  | −2.6 mm Hg | ΔΔEmax (%) [1, 5]: −6%; Tmax [1, 6]: 4 h
16 | CC(C)(C)OC(=O)CCc1cccc(CN(Cc2ccc(-c3cccnc3)cc2)S(=O)(=O)c2ccccc2)c1 [Example 4] | 5.35 | < 12.4 |  | 
17 | CC(C)OC(=O)c1ccc(CCCN(CCCOc2cc(Cl)cc(Cl)c2)S(C)(=O)=O)s1 [Example 2] | 8.15 | 3.22 |  | 
18 | CC(C)OC(=O)c1ccc(CCCN(CCCOc2cc(Cl)cc(Cl)c2)S(C)(=O)=O)s1 [drawing 62] |  |  |  | ΔΔEmax (%) ([1]; isopropylesters, OHT primates, OHT eye): ns; ΔΔEmax (mmHg) ([1]; isopropylesters, OHT primates, OHT eye, 0.1 mg/ml topical): ns; Tmax (h) [1, 8]: ns
19 | COC(=O)COc1cccc(CN(Cc2ccc(-n3cccn3)cc2)S(=O)(=O)c2cccnc2)c1 [Example 3] | 1.48 | 10 |  | 
20 | O=C(O)CCc1cccc(CN(Cc2ccc(-c3cccnc3)cc2)S(=O)(=O)c2ccccc2)c1 |  |  | −3.0 mm Hg | change in vivo at 0.1 % [1, 7]: -10%; Tmax [1, 6]: 4 h
21 | CS(=O)(=O)N(CCCOc1cc(Cl)cc(Cl)c1)CCCc1ccc(C(=O)O)s1 |  |  | −4.4 mm Hg | change in vivo at 0.1 % [1, 7]: -11%; Tmax [1, 6]: 2 h
22 | CC(C)OC(=O)c1csc(CCCN(CCOc2cc(Cl)cc(Cl)c2)S(C)(=O)=O)c1 |  |  |  | ΔΔEmax (mmHg) ([1]; isopropylesters, OHT primates, both eyes): −8 (both eyes) mmHg; Tmax [1, 8]: 4 to 6 h
23 | Cn1cnc(S(=O)(=O)N(Cc2ccc(-c3nccs3)cc2)Cc2cccc(OCC(=O)O)c2)c1 |  |  | ns | ΔΔEmax (%) [1, 5]: ns
24 | CS(=O)(=O)N(CCCc1nc(C(=O)O)cs1)CCOc1cc(Cl)cc(Cl)c1 |  |  | −4.3 mm Hg | change in vivo at 0.1 % [1, 7]: -8%; Tmax [1, 6]: 2 h
25 | O=C(O)COc1cccc(CN(Cc2ccc(-c3ncccn3)cc2)S(=O)(=O)c2ccccn2)c1 |  |  | ns | ΔΔEmax (%) [1, 5]: ns
